Key:
[1] = Hydrolytic stability at pH 7.0 at 37 degree C; expressed as T1/2; format: physicochemical; details: buffer
[2] = Hydrolytic stability at pH 5.0 at 37 degree C; expressed as T1/2; format: physicochemical; details: buffer
L2987 [3] = experiment: In vitro inhibitory concentration of the unconjugated compound against human L2987 lung carcinoma cell line; format: functional, cell-based
L2987 [4] = experiment: Potency against human L2987 lung carcinoma cell line relative to that of DOX 1a; format: functional
L2987 [5] = experiment: (§1) Potency against human L2987 lung carcinoma cell line relative to that of BR96-1b; format: functional, cell-based
L2987 [6] = experiment: In vitro inhibitory concentration of the BR96 conjugate of compound against human L2987 lung carcinoma cell line; format: functional, cell-based
L2987 [7] = experiment: In vitro inhibitory concentration of the IgG conjugate of compound against human L2987 lung carcinoma cell line; format: functional, cell-based
[8] = Selectivity ratio determined as IC50 IgG-3b to that of IC50 BR96-3b; format: functional
[9] = Selectivity ratio determined as IC50 IgG-2b to that of IC50 BR96-2b; format: functional
L2987 [10] = experiment: as §1; format: functional
[11] = Selectivity ratio determined as IC50 IgG-1b to that of IC50 BR96-1b; format: functional

| Compound | half-life [1] | half-life [2] | IC50 (L2987 [3]) | IC50 (L2987 [6]) | also measured |
| --- | --- | --- | --- | --- | --- |
| COc1cccc2c1C(=O)c1c(O)c3c(c(O)c1C2=O)C[C@@](O)(/C(CO)=N/NC(=O)CCCCCN1C(=O)CC(SCCO)C1=O)C[C@@H]3OC1C[C@H](NCCCCC(OC(C)=O)OC(C)=O)C(O)[C@H](C)O1 (stereo partly specified) | > 100 h | 6.5 h |  |  |  |
| COc1cccc2c1C(=O)c1c(O)c3c(c(O)c1C2=O)C[C@@](O)(C(=O)CO)C[C@@H]3O[C@H]1C[C@H](N)[C@H](O)[C@H](C)O1 [DOXORUBICIN] |  |  | 300 nM |  |  |
| COc1cccc2c1C(=O)c1c(O)c3c(c(O)c1C2=O)C[C@@](O)(C(=O)CO)C[C@@H]3OC1C[C@H](NCCCCC(OC(C)=O)OC(C)=O)C(O)[C@H](C)O1 (stereo partly specified) |  |  | 30 nM |  | Relative potency (L2987 [4]): 10 |
| COc1cccc2c1C(=O)c1c(O)c3c(c(O)c1C2=O)C[C@@](O)(/C(CO)=N/NC(=O)CCCCCN1C(=O)CC(S)C1=O)C[C@@H]3OC1C[C@H](N2CCOCC2)C(O)[C@H](C)O1 (stereo partly specified) |  |  |  | 200 nM | IC50 (L2987 [5]): 5000 nM; IC50 (L2987 [7]): 2000 nM; Ratio [8]: 10 |
| COc1cccc2c1C(=O)c1c(O)c3c(c(O)c1C2=O)C[C@@](O)(C(=O)CO)C[C@@H]3OC1C[C@H](N2CCOCC2)C(O)[C@H](C)O1 (stereo partly specified) |  |  | 40 nM |  | Relative potency (L2987 [4]): 8 |
| COc1cccc2c1C(=O)c1c(O)c3c(c(O)c1C2=O)C[C@@](O)(/C(CO)=N/NC(=O)CCCCCN1C(=O)CC(SCCO)C1=O)C[C@@H]3OC1C[C@H](N2CCOCC2)C(O)[C@H](C)O1 (stereo partly specified) | > 95 h | 4.5 h |  |  |  |
| COc1cccc2c1C(=O)c1c(O)c3c(c(O)c1C2=O)C[C@@](O)(/C(CO)=N/NC(=O)CCCCCN1C(=O)CC(SCCO)C1=O)C[C@@H]3OC1C[C@H](N)C(O)[C@H](C)O1 (stereo partly specified) | > 120 h | 7 h |  |  |  |
| COc1cccc2c1C(=O)c1c(O)c3c(c(O)c1C2=O)C[C@@](O)(/C(CO)=N/NC(=O)CCCCCN1C(=O)CC(S)C1=O)C[C@@H]3OC1C[C@H](NCCCCC(OC(C)=O)OC(C)=O)C(O)[C@H](C)O1 (stereo partly specified) |  |  |  | 30 nM | Ratio [9]: 300; IC50 (L2987 [7]): 10000 nM; Relative potency (L2987 [10]): 30 |
| COc1cccc2c1C(=O)c1c(O)c3c(c(O)c1C2=O)C[C@@](O)(/C(CO)=N/NC(=O)CCCCCN1C(=O)CC(S)C1=O)C[C@@H]3OC1C[C@H](N)C(O)[C@H](C)O1 (stereo partly specified) |  |  |  | 1000 nM | Ratio [11]: 8 |

— ChEMBL document CHEMBL1136074, “BR96 conjugates of highly potent anthracyclines” (Bioorg Med Chem Lett, 2003)
